Molecules are shown by their SMILES.

This is an account of results in patent publication US6632813B1, “6-subtituted-7-heteroquinoxalinecarboxylic acid derivatives and addition salts thereof and processes for the preparation of both” (Kyorin Pharmaceutical Co., Ltd., priority 1999, dated 2003).

For one data set, the target named is AMPA receptor. As to the kind of experiment: Binding experiment against AMPA receptor ([3H]-AMPA binding, crude synaptic membranes from cerebral cortex). The settings on record: [3H]-AMPA 5 nmol/L, potassium thiocyanate 100 mmol/L, 30 minutes at 0° C., rat cerebral cortex crude synaptic membranes; IC50 converted to Ki; read-out: [3H]-AMPA (Ki: μmol/L). The procedure: Binding Experiment Against AMPA Receptor
To a crude synaptic membranes preparation prepared from cerebral cortex in rat were added [^3H]-AMPA (final concentration: 5 nmol/L) that binds selectively to AMPA receptors, potassium thiocyanate (final concentration: 100 mmol/L) and testing compound, and the mixture was incubated for 30 minutes at 0° C. After the reaction was stopped by suction filtration, the radioactivity on filter was measured with liquid scintillation counter. The specific binding level of [^3H]-AMPA was determined by subtracting the non-specific binding level in the presence of glutamic acid (0.1 mmol/L) from total binding level. The [^3H]-AMPA binding in the absence of testing compound was put on 100, and the concentration of compound to decrease by 50% (IC50 value) was determined, which was converted to Ki value to calculate the binding capacity of each compound to AMPA receptor (Eur. J. Pharmacol., 1993, 246, 195-204).

`O=C(Nc1ccc(C(=O)O)cc1)OCc1cn(-c2cc3nc(C(=O)O)c(=O)[nH]c3cc2Cl)cn1` [Example 53, 7-(4-(((4-Carboxyphenyl)carbamoyloxy)methyl)imidazole-1-yl)-6-chloro-3,4-dihydro-3-oxoquinoxaline-2-carboxylic Acid]: the melting point (as a rule, the temperature of the solid-liquid transition) is 246 to 248 °C (dec.). Same read-out and setting: to `O=C(NCc1ccn(-c2cc3nc(C(=O)O)c(=O)[nH]c3cc2Cl)c1)Nc1ccc(Cl)cc1` [Example 39, 6-Chloro-7-(3-(((4-chlorophenyl)aminocarbonylamino)methyl)pyrrole-1-yl)-3,4-dihydro-3-oxoquinoxaline-2-carboxylic Acid] belongs 193 to 195 °C (dec.); to `COc1ccc(NC(=O)NCc2ccn(-c3cc4nc(C(=O)O)c(=O)[nH]c4cc3Cl)c2)cc1` [Example 38, 6-Chloro-3,4-dihydro-7-(3-(((4-methoxyphenyl)aminocarbonylamino)methyl)pyrrole-1-yl)-3-oxoquinoxaline-2-carboxylic Acid], 208 to 210 °C (dec.); to `CC(C)NC(=O)NCc1ccn(-c2cc3nc(C(=O)O)c(=O)[nH]c3cc2Cl)c1` [Example 37], 158 to 160 °C (dec.). `O=C(NCc1ccn(-c2cc3nc(C(=O)O)c(=O)[nH]c3cc2F)c1)Nc1ccc(C(=O)O)cc1` [Example 13] returned a melting point above 300 °C. Further, the Ki at AMPA receptor was 0.924 µmol/L. On to `O=C(NCc1ccn(-c2cc3nc(C(=O)O)c(=O)[nH]c3cc2Cl)c1)Nc1ccc(C(=O)O)cc1` [Example 10, 7-(3-(((4-Carboxyphenyl)aminocarbonylamino)methyl)pyrrole-1-yl)-6-chloro-3,4-dihydro-3-oxoquinoxaline-2-carboxylic Acid], for which the melting point was above 300 °C. The Ki on AMPA receptor is 0.067 µmol/L. The like results for `Cc1cc2[nH]c(=O)c(C(=O)O)nc2cc1-n1ccc(CNC(=O)Nc2ccc(C(=O)O)cc2)c1` [Example 12, 7-(3-(((4-Carboxyphenyl)aminocarbonylamino)methyl)pyrrole-1-yl)-3,4-dihydro-6-methyl-3-oxoquinoxaline-2-carboxylic Acid] were, in that order, above 300 °C and 0.178 µmol/L. As for `COc1cc2[nH]c(=O)c(C(=O)O)nc2cc1-n1ccc(CNC(=O)Nc2ccc(C(=O)O)cc2)c1` [Example 11, 7-(3-(((4-Carboxyphenyl)aminocarbonylamino)methyl)pyrrole-1-yl)-3,4-dihydro-6-methoxy-3-oxoquinoxaline-2-carboxylic Acid], the melting point is above 300 °C. In addition, the Ki at AMPA receptor turned out to be 0.323 µmol/L. `O=C(NCc1ccn(-c2cc3nc(C(=O)O)c(=O)[nH]c3cc2Cl)c1)Nc1cccc2ccccc12` [Example 40, 6-Chloro-3,4-dihydro-7-(3-(((1-naphthyl)aminocarbonylamino)methyl)pyrrole-1-yl)-3-oxoquinoxaline-2-carboxylic Acid] had a melting point of 196 to 198 °C. On the same count and under the same terms, the value for `O=C(NCc1ccn(-c2cc3nc(C(=O)O)c(=O)[nH]c3cc2Cl)c1)Nc1ccccc1` [Example 26] was 171 to 173 °C (dec.); that for `O=C(Nc1ccccc1)OCc1cn(-c2cc3nc(C(=O)O)c(=O)[nH]c3cc2Cl)cn1` [Example 47, 6-Chloro-3,4-dihydro-3-oxo-7-(4-((phenylcarbamoyloxy)methyl)imidazole-1-yl)quinoxaline-2-carboxylic Acid] was 199 to 201 °C (dec.).
